Experimental data: patent publication US11795144B2, “Inhibitors of RAC1 and uses thereof for treating cancers” (INSTITUT NATIONAL DE LA SANTE ET DE LA RECHERCHE MEDICALE …, priority 2017, dated 2023)
“Also recorded” adds a separate entry of the source.

Experiments:
RAC1 = RAC1 (Homo sapiens, UniProt P63000)
Rac = Rac activator-induced membrane ruffling (actin reorganization) in 3T3 fibroblasts; type: cell-based; conditions: 3T3 cells, compound added 1 h before Rac activation
Description: (§1) FIGS. 1 to 3 relate to the inhibition of the Rac-induced cell functions by compound (2) (or A4.1). […] Ruffles are indicated by arrows (left panel). Percentages of cells with ruffles were quantified (right panel). Results shown are representative of 3 independent experiments. […] Left panel, representative records with arrows indicating the cell location at different times. Right panel, quantification of cell speed in each experimental conditions. Results shown are representative of 2 independent experiments. […] Lower panel, quantification of cell adhesion. Results shown are representative of 3 independent experiments.
(§2) cDNA coding for constitutive active Rac1 (Rac^V12-RFP) were transfected in NIH3T3 with jetPEI (Polyplus transfection) according to the manufacturer's instructions. After treatments, fibroblasts were fixed with 4% paraformaldehyde in PBS, permeabilized in PBS 0.5% Triton X-100, and incubated with 130 μg/mL of FITC-conjugated phalloidin (Sigma) to visualize F-actin. After staining, images were captured by a fluorescence microscope (Nikon). The actin cytoskeleton organization was analyzed to observe Rac1-dependent ruffle formation.

3T3 cells = assay: Unidirectional cell migration (cell speed); type: cell-based
Description: Percentages of cells with ruffles were quantified (right panel). Results shown are representative of 3 independent experiments. […] Left panel, representative records with arrows indicating the cell location at different times. Right panel, quantification of cell speed in each experimental conditions. Results shown are representative of 2 independent experiments. […] Lower panel, quantification of cell adhesion. Results shown are representative of 3 independent experiments.
Cells (1000/well) were seeded in a 96 well plate with […] fibronectin stripes (CytooPlates Motility, CYTOO) in medium with 1% SVF and allowed to spread for 4 hours before capturing time-lapse images for 24 hours (image/10 minutes) on a Widefield Leica DMI 6000B drove with Metamorph software. Cells speed was measured with ImageJ software.

fibroblast = assay: Cell adhesion assay using impedance technology (xCELLigence); type: cell-based; conditions: fibroblasts pre-treated with 10 μm
Description: as §1
Cells (10000/well) were seeded in a 96 well plate microtiter xCELLigence assay plate (E-Plate) (ACEA Biosciences Inc.) and placed on the Real-time xCELLigence Cell Analyzer (Roche Applied Science) platform at 37° C. to measure the “cell index” every 5 min for a period of 6 hours. The cell index unit is defined as (Rn−Rb)/15. Rn is the cell electrode impedance of the well when it contains cells. Rb is the background impedance of the well with the media alone.

Rac^V12 = molecular target: T1, Rac^V12 (Homo sapiens, UniProt P63000, G12V); assay: Ruffle formation and membrane location of constitutive active RFP-Rac^V12 in fibroblasts; type: cell-based
T1 construct: expressed in transfected cells; host or cells: NIH3T3
Description: as §2
Rac1 over activity is implicated in various steps of oncogenesis including initiation, progression, invasion, and metastasis. The ability of (2) to inhibit a constitutive active mutant of Rac1, Rac^V12 was evaluated. In control condition, expression of RFP-Rac^V12 in fibroblasts induces changes in actin cytoskeleton leading to ruffles formation (data not shown). This effect is prevented by (2) (10 μM).

MDA-MB-468 = assay: Cancer cell invasion in 3D gel; type: cell-based; conditions: 10 μM, after 48 h
Description: (§3) FIG. 4 relates to the inhibition of the Rac-dependent cell functions involved in cancer cells by (2). FIG. 4A: Breast cancer cell line MDA-MB-468 and primary human fibroblast from breast cancer tumors were seeded in 3D-gel containing or not (2). […] FIG. 4B: Effect of (2) on foci assay.
(§4) To confirm this hypothesis, cancer cells invasion was analyzed in 3D gel. The breast cancer cell line MDA-MB-468 or primary fibroblasts from human breast cancer were seeded in gels containing or not (2) (10 μM).

[1] = test system: primary fibroblasts from human breast cancer; assay: Invasion in 3D gel of primary fibroblasts from breast cancer; type: cell-based; conditions: 10 μM, after 48 h
Description: as §3, §4

MCF-7 cells = assay: Primary focus formation assay; type: cell-based; conditions: MCF-7, 3 weeks of treatment
Description: For primary focus formation assays, MCF-7 cells were plated at a density of 10^5 cells/well of a 6-well plate. Cells were allowed to reach confluency and were maintained on complete growth medium supplemented with indicated concentration of A4.1 (or compound (2)) or vehicle until focus formation occurred. Foci of transformed cells was quantitated after 21 days.
Malignant transformation of cells is typically associated with increased proliferation, loss of contact inhibition, acquisition of anchorage-independent growth potential, and the ability to form foci in culture cells. A focus formation assay was used to test whether (2) affects the clonogenic potential of breast cancer cells MCF-7. After 3 weeks of treatments, the cells's foci were fixed, stained and counted ([…]).

[2] = Pharmacokinetics after intraperitoneal injection; type: in vivo, male C57BL6 adult mice; conditions: male, C57BL6, mouse, plasma; IP route, mice
Description: FIG. 5 relates to the pharmacokinetics of compound (2) by analyzing kidney, brain, liver, heart, plasma samples, and lungs from male C57BL6 adult mice after intraperitonal injection. The curves of this Figure represent the concentration in μg/g over time in minutes.
(§5) To test whether compound (2) would have an acceptable therapeutic index in vivo, the pharmacokinetics of compound (2) were measured by analyzing plasma samples, brain, heart, kidney, liver and lungs from male C57BL6 adult mice after intraperitonal injection (IP) (FIG. 5). In addition, we evaluated the effect of chronic (daily during 4 weeks) IP injections of compound (2) on physiological parameters: body weight, glycemia, hepatic and renal functions (FIGS. 6 to 8).

[3] = Chronic IP injections: body weight, glycemia, hepatic and renal functions; type: in vivo, mice; conditions: 25 mg/kg IP daily during 4 weeks
Description: FIGS. 6 to 8 relate to the effect of chronic IP injections of compound (2) on physiological parameters: body weight, glycemia, hepatic and renal functions.
as §5

[4] = test system: MDA-MB-468 (Luciferase+) cell line; assay: Metastasis in xenograft mouse tumor model; type: in vivo, NMRI mice; conditions: 25 mg/kg/d IP during 4 weeks after exeresis of primary tumor
Description: FIG. 9 relates to the in vivo efficiency of compound (2) to inhibit metastasis in a xenograft mouse tumor model using MDA-MB-468 (Luciferase+) cell line in 5-week-old NMRI mice.
The in vivo efficiency of compound (2) to inhibit metastasis was evaluated in a xenograft mouse tumor model using MDA-MB-468 (Luciferase+) cell line in 5-week-old NMRI mice. When the tumor volume reached 1,000 mm^3, exeresis of the primary tumor was done to monitor predominantly metastasis initiation and progression. Compound (2) was administered everyday via intraperitoneal injection (25 mg/kg/d) during 4 weeks. Then, xenografted mice were sacrified and organs were imaged (FIGS. 9A and 9B).

SMILES | IC50 (RAC1) [nM] | Relative activity (NSC23766) (RAC1; compared with NSC23766) | Efficiency of Rac activator to induce ruffle / actin reorganization (Rac) | Efficiency of Rac activator to induce ruffle / actin reorganization (Rac; listed as A4.1) | Cell migration (cell speed) (3T3 cells) | Cell adhesion (fibroblast) | Location of Rac^V12 at the plasma membrane (Rac^V12) | Ruffles formation induced by RFP-Rac^V12 (Rac^V12; 10 μM) | Decrease of cell invasion compared to control (MDA-MB-468) [%] | Decrease of cell invasion compared to control [1] [%] | IC50 (MCF-7 cells; Homo sapiens, MCF7, 504 h) [nM] | Focus diameter and focus numbers compared with control cells (MCF-7 cells) | bioavailability [2] [%] | Side effects after chronic injection [3] | Metastases [4]
COc1ccc(OC)c(NS(=O)(=O)c2ccc(NC(=O)CCCc3ccc(C)cc3)cc2)c1 [(3), N-(4-(N-(2,5-dimethoxyphenyl)sulfamoyl)phenyl)-4-(p-tolyl) Butanamide] | 0.1 | > | – | – | – | – | – | – | – | – | – | – | – | – | –
COc1ccc(OC)c(NS(=O)(=O)c2ccc(NC(=O)CCSc3ccc(C)cc3)cc2)c1 [Compound (2), N-(4-(N-(2,5-dimethoxyphenyl)sulfamoyl)phenyl)-3-(p-tolylthio)propanamide] | – | – | strongly decreased | blocks Rac activator-induced actin reorganization | decreases cell migration; also recorded: higher inhibition | decreases cell adhesion; also recorded: higher inhibition | limits the location of Rac^V12 at the plasma membrane | prevented | > 50 | > 50 | 2.3 | smaller focus diameter as well as focus numbers | 81.5 | no major side effects | decreases significantly bone, hepatic, uterine and ovarian metastases
CCN(CC)CCCC(C)Nc1nc(C)cc(Nc2ccc3nc(C)cc(N)c3c2)n1 (stereo not shown) [NSC23766, reference compound] | – | – | – | – | – | slow down | – | – | – | – | – | – | – | – | –
